From article PMC5411959, “Potential Antiosteoporotic Natural Product Lead Compounds That Inhibit 17β-Hydroxysteroid Dehydrogenase Type 2” (Journal of Natural Products, 2017)

Legend:
human 17β-HSD1 = biological target: T1, human 17β-HSD1 (Homo sapiens, UniProt P14061); assay: 17β-HSD1 activity assay using lysates of HEK-293 cells expressing the recombinant human enzyme; type: biochemical; settings: for selectivity factor: 17β-HSD1 versus 17β-HSD2; for IC50: HEK-293 lysates, 200 nM estrone, 500 μM NADPH
T1 construct: expressed in transfected cells; host or cells: HEK-293 (ATCC), used as cell lysate
T1 sequence (P14061 1-328): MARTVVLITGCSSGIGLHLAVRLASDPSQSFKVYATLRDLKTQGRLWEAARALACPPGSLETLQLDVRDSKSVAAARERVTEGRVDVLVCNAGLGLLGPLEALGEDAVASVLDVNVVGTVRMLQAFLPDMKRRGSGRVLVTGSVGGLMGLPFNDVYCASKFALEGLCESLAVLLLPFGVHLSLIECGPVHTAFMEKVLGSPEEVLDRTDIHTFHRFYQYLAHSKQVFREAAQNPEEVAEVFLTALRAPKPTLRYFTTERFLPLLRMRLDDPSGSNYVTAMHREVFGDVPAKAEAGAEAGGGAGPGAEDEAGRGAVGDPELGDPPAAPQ

[1] = Compound stability in the test system (repeated and prolonged incubation, thawing-freezing cycles); type: physicochemical; settings: prolonged incubation, IC50 in weeks 1 and 3, thawing-freezing cycles
Description: extent these PAINS should be excluded from further research. Much more data is needed to finally provide directions for the use of PAINS filters4.
Besides these general aspects of PAINS, there are of course many arguments about curcumin itself as a hit. We are aware of the compound’s many reported bioactivities observed in in vitro studies and additionally of its very poor bioavailability. However, this study is a proof of concept study identifying many natural products inhibiting 17β-HSD2 when there is direct access to the binding site and we categorize curcumin as one of them. Why? A very recent analysis of curcumin data […]
Criterion 1. Look for evidence of compound stability in assay buffer/media, including when molecular models are invoked as supporting evidence of target engagement.
We observed no significant changes in inhibition in the experimental repetition also when the incubation time was prolonged. Actually, the assay duration is only 10 minutes and the compound has direct access to the binding site when using cell […]
Criterion 2. Look for the presence of detergent and thiol-scavenging reagents in biochemical assays to mitigate the impact of chemical aggregation and nonspecific thiol reactivity. Are/were any additional counterscreens performed to rule out these phenomena? […]
reactivity would alter the enzymes activities. Also this has not been observed.

human 17β-HSD2 = biological target: T2, human 17β-HSD2 (Homo sapiens, UniProt P37059); assay: 17β-HSD2 activity assay using lysates of HEK-293 cells expressing the recombinant human enzyme; type: biochemical; settings: for IC50: HEK-293 lysates, 200 nM estradiol, 500 μM NAD+, 10 min 37 °C;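 for all read-outs here: conversion of tritium-labelled estradiol (200 nM, with 500 µM NAD+, 10 min) quantified after TLC separation by scintillation counting, at least three independent measurements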
T2 construct: expressed in transfected cells; host or cells: HEK-293 (ATCC), used as cell lysate
T2 sequence (P37059 1-387): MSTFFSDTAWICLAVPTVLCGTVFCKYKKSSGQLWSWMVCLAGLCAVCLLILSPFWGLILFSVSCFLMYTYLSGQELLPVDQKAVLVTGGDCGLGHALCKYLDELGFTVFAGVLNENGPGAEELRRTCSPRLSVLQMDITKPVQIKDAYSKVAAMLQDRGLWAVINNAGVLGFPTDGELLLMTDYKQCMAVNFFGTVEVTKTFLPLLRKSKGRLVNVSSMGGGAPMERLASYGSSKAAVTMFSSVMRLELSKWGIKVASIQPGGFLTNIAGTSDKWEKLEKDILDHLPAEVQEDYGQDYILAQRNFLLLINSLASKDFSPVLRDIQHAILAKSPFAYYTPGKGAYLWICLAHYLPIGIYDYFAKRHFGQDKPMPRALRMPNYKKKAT

17β-HSD = test system: 17β-HSD; set-up: method as in PMID 11731908; settings: cited from earlier work
human ERα = test system: human ERα; set-up: method as in PMID 25106881; settings: reported; read-out: ERα activation EC50; cited from earlier work

selectivity over 17β-HSD1 (human 17β-HSD1; 17β-HSD2 over 17β-HSD1) [fold] | Compound | selectivity factor (human 17β-HSD1) | remaining activity at 20 µM (human 17β-HSD1; read-out: 17β-HSD1 remaining activity at 20 μM) [%] | stability in the test system [1] | IC50 values with 0.1% Triton-X100 added, versus absence of detergent (human 17β-HSD2; 0.1% Triton-X100 in reaction mixture) | IC50 (human 17β-HSD2) [nM] | IC50 (human 17β-HSD1) [µM] | effect on 17β-HSD activity in placenta microsomes (17β-HSD) | classification (17β-HSD2 inhibition) (human 17β-HSD2; flavonoid SAR model, Table 4) | EC50 (human ERα) [µM]
 | COc1cc(/C=C/C(=O)CC(=O)/C=C/c2ccc(O)c(OC)c2)ccc1O [compound 3, curcumin] | ∼12 | 52.2 ± 7.1 | seemed to be stable | comparable | 1730 ± 200 |  |  |  | 
≥ 8 | COc1cc(C[C@@H](C)[C@H](C)Cc2ccc(O)c(OC)c2)ccc1O [compound 4, (−)-dihydroguaiaretic acid] | 8 |  |  |  | 940 ± 20 | 7.7 ± 2.2 | no effects |  | 
 | O=c1c(-c2ccc(O)cc2O)coc2cc(O)cc(O)c12 [compound 9, 2′-hydroxygenistein] | 0.5 |  |  |  | 2030 ± 370 | 1.09 ± 0.06 |  | active | 6.1
